From patent US20170051014A1, “PEPTIDE HAVING EFFICACY FOR REMEDYING HYPOPIGMENTATION AND INHIBITING ADIPOGENESIS, AND USE OF SAME” (CAREGEN CO., LTD., priority 2014, published 2017)
Bridge positions count the residues as written; N and C are the ends.

How the values were obtained:
[1] = cited from earlier work; for side effects / weight loss effect: background statement on marketed anti-obesity drugs
[2] = test system: PPARγ; assay: Adipogenesis-related gene expression by RT-PCR: PPARγ; type: cell-based; conditions: 3T3-L1 cells with differentiation inducing material, incubation for 7 days
Experimental: (§1) Pre-adipocytes (3T3-L1 cell line) were incubated on 6-well plates for 48 hours, and then treated with the present peptide with different concentrations together with a differentiation composition (0.5 mM IBMX, […], […]), followed by incubation for 7 days. After the incubation, PT-PCR was conducted using primers specific to perilipin and PPARγ, which are genes involved in the adipogenesis mechanism. It was investigated whether the mRNA values of perilipin and PPARγ were inhibited.
(§2) Target-specific primer sequences used in PCR for enzymes involved in adipogenesis were as follows: perilipin forward primer sequence, 5′-[…]-3′ and perilipin reverse primer sequence, 5′-[…]-3′ (annealing temperature, 60° C.); PPARγ forward primer sequence, 5′-[…]-3′ and PPARγ reverse primer sequence, 5′-[…]-3′ (annealing temperature, 60° C.)

[3] = test system: perilipin; assay: Adipogenesis-related gene expression by RT-PCR: perilipin; type: cell-based; conditions: 3T3-L1 cells with differentiation inducing material, incubation for 7 days
Experimental: as §1, §2

[4] = test system: CREB; assay: Melanogenesis signaling molecules by western blot: CREB phosphorylation; type: cell-based, mouse; conditions: B16F10 cells, observed over time (6 to 24 hours)
Experimental: (§3) Melanocytes (B16F10 cell line) were incubated on 6-well culture plates in an incubator for 24 hours, and were treated with the peptide of the present invention with different concentrations. After the cells were incubated for from 6 to 24 hours, the cells were dissolved, and then the CREB phosphorylation and MITF expression, which are signaling molecules involved in melanogenesis, were observed by western blot assay using antibodies specific thereto. The test was carried out using anti-pCREB antibody (Santa Cruz Biotechnology, USA) and anti-MITF antibody (Santa Cruz Biotechnology, USA).

[5] = test system: tyrosinase; assay: Melanogenic enzyme gene level by RT-PCR: tyrosinase; type: cell-based, mouse; conditions: B16F10 cells, 6-hour treatment and 24-hour treatment
Experimental: (§4) Melanocytes (B16F10 cell line) were incubated on 6-well culture plates in an incubator for 24 hours, and were treated with the peptides of the present invention with different concentrations. After the incubation for hours, the cells were taken off, and then, the increases in the expressions of tyrosinase and TRP1, which are enzymes involved in melanogenesis, were observed by RT-PCR using primers specific thereto.
(§5) Target-specific primer sequences used in PCR for enzymes involved in melanogenesis were as follows: Tyrosinase forward primer sequence, 5′-[…]-3′ and tyrosinase reverse primer sequence, 5′-[…]-3′ (annealing temperature, 51° C.); TRP1 forward primer sequence, 5′-[…]-3′ and TRP1 reverse primer sequence, 5′-[…]-3′ (annealing temperature, 60° C.)

[6] = test system: tyrosinase; assay: Melanogenic enzyme protein level by western blot: tyrosinase; type: cell-based, mouse; conditions: B16F10 cells, 6-hour treatment and 24-hour treatment
Experimental: Melanocytes (B16F10 cell line) were incubated on 6-well culture plates in an incubator for 24 hours, and were treated with the peptide of the present invention with different concentrations. […] The test was conducted using an anti-tyrosinase antibody (Santa Cruz Biotechnology, USA).

[7] = test system: MITF; assay: Melanogenesis signaling molecules by western blot: MITF; type: cell-based, mouse; conditions: B16F10 cells, observed over time (6 to 24 hours)
Experimental: as §3, with “[…],” for “and then the CREB phosphorylation and MITF expression,”

[8] = test system: TRP1; assay: Melanogenic enzyme gene level by RT-PCR: TRP1; type: cell-based, mouse; conditions: B16F10 cells, 6-hour treatment and 24-hour treatment
Experimental: as §4, §5

[9] = test system: Pre-adipocytes (3T3-L1 cell line); assay: Measurement of triglyceride amount in differentiating pre-adipocytes; type: cell-based; conditions: 3T3-L1 cells with differentiation inducing material, incubation for 7 days, absorbance 540 nm
Experimental: Pre-adipocytes (3T3-L1 cell line) were incubated on 24-well plates for 48 hours, and then treated with the peptide of the present invention with different concentrations together with a differentiation composition (0.5 mM IBMX, […], […]), followed by incubation for 7 days. The cells were taken off, and then put in a dissolution buffer (50 mM Tris, 150 mM NaCl, 1% Triton X-100, proteolytic enzyme inhibitor), and kept in ice for 30 minutes. After centrifugation at 14,000 g for 10 minutes, the supernatant containing an oil layer was collected, and a triglyceride reagent was added thereto, followed by reaction in an incubator at 37° C. for 5 minutes. The absorbance was measured at 540 nm to determine the amount of triglycerides.

Row | Compound | side effects [1] | weight loss effect [1] | effect of reducing body fat ([1]; background statement on anti-obesity drugs) | gene expression of PPARγ [2] | gene expression of perilipin [3] | phosphorylation level of CREB [4] | expression of tyrosinase gene [5] | expression of tyrosinase protein [6] | MITF protein expression level [7] | expression of TRP1 gene [8] | level of triglycerides accumulated in cells [9]
1 | CC(C)CC(N(C)C)C1(c2ccc(Cl)cc2)CCC1 (stereo not shown) [Reductil] | cardiovascular diseases, such as stroke and myocardial infarction | 5-10% | – | – | – | – | – | – | – | – | –
2 | CCCCCCCCCCC[C@@H](C[C@@H]1OC(=O)[C@H]1CCCCCC)OC(=O)[C@H](CC(C)C)NC=O [Xenical] | frequent diarrhea | 2-3% | – | – | – | – | – | – | – | – | –
3 | Cn1c(=O)c2[nH]cnc2n(C)c1=O [aminophylline] | broad side effects throughout the mental nervous system, circulatory system, and digestive system | – | excellent effect of reducing body fat | – | – | – | – | – | – | – | –
4 | NH2-Gln-Cys-Arg-Phe-Phe-Arg-Ser-Ala-Cys-COOH (H-QCRFFRSAC-OH; cysteine pairing not given here) [SEQ ID NO: 1] | – | – | – | reduced compared with a control | reduced compared with a control | increased | increased compared with a control | increased compared with a control | increased | increased compared with a control | reduced in a concentration-dependent manner
5 | NH2-Tyr-Cys-Arg-Phe-Phe-Asn-Ala-Phe-Cys-COOH (H-YCRFFNAFC-OH; disulfide 2-9 (inferred)) [SEQ ID NO: 2] | – | – | – | reduced compared with a control | reduced compared with a control | increased | increased compared with a control | increased compared with a control | increased | increased compared with a control | reduced in a concentration-dependent manner
